The subject of assay [1] is Brown rust (Puccinia recondita). The assay is described as follows: Test Example 4: foliar spray on wheat, Brown rust lesion area. Type of assay: in vivo, Puccinia recondita on wheat (cultivar. Shirogane). The settings on record: single use, foliar spray one day before inoculation. As to the method: Five(5) parts of the present compound 1-1, 35 parts of a mixture of white carbon and ammonium polyoxyethylene alkyl ether sulfate (the weight ratio of 1:1) and 55 parts of water were mixed, and the mixture was then finely-ground by a wet grinding method to obtain a flowable comprising the present compound 1-1. Separately, the flowable comprising the present compound 2 was prepared according to the above-mentioned similar method except that the present compound 2 was used instead of the present compound 1-1.
Each of the flowable comprising the present compound 1-1 and the flowable comprising the present compound 2 was diluted with water and if necessary, the resultant dilute solutions were mixed each other such that each concentration of the respective compounds in the dilution solution was adjusted to the concentration indicated in Table 4, to prepare the dilution solutions, respectively.
A plastic pot was filled with soil, and thereto wheat (cultivar. Shirogane) was seeded, and the plants were grown in a greenhouse for ten days. The above-mentioned dilution solutions were sprayed to foliar parts so as to adhere adequately onto the surfaces of leaves of the above wheats. After spraying the dilute solution, the plants were air-dried, and one day after the application, an aqueous suspension of uredospores of Brown rust (Puccinia recondita) was inoculated by spraying thereto. After the inoculation, the plants were placed at 27° C. under humid condition for one day, and were then cultivated under lighting for ten days, and a lesion area was examined (hereinafter referred to as “lesion area of treated group”).
Whereas, wheats were cultivated similarly to the treated group except that no foliage application of the above-mentioned agent solution was done, and Brown rust were inoculated, and the lesion area thereof was examined (hereinafter referred to as “lesion area of the untreated group”).
From each of the lesion area of the treated group and the untreated group, respectively, the efficacy of the treated group was calculated by the following Equation 2. […]

The test system of assay [2] is Septoria leaf blotch (Mycosphaerella graminicola). The assay can be described thus: Test Example 3: growth of Septoria leaf blotch in YBG medium in microtiter plate (absorbance at 550 nm). It is filed as cell-based. The settings on record: single use, 18° C., four days. As to the method: Each of the present compound 1-1 or the present compound 2 was dissolved into dimethyl sulfoxide such that each concentration of these compounds was adjusted to one hundred fifty times as much as the concentration indicated in the below-mentioned Table 3. The resultant agent solution was dispensed into each microtiter plate (with 96 wells) in 1 μl portion thereof per well. […] The plate was cultivated at 18° C. for four days, thereby allowing Septoria leaf blotch (Mycosphaerella graminicola) to undergo proliferation, and the absorbance at 550 nm of each well of the microtiter plate was then measured to examine a degree of growth of Septoria leaf blotch (hereinafter referred to as “treated group”).
Whereas, Septoria leaf blotch was proliferated similarly to the case of the treated group except that dimethyl sulfoxide was used instead of the agent solution, and the degree of the growth was examined (hereinafter referred to as “untreated group”). The efficacy was calculated from each of the obtained degree of growth of the treated group and the untreated group respectively by the following “Equation 1”. […]

On to `Cc1nnc(Cl)c(-c2c(F)cccc2F)c1-c1ccccc1` [Present compound 1-1], for which the entries for the “Efficacy (%)” value in assay [1] (concentration in agent solution 0.0001 ppm), in assay [1] (concentration in agent solution 0.01 ppm) and in assay [2] (concentration in medium 0.005 ppm) were 20%, 31% and 4%, respectively.
Take `CC1CC(C)(C)c2c(F)ccc(NC(=O)c3cn(C)nc3C(F)F)c21` (centres unmarked) [Present compound 2]: the figures for the “Efficacy (%)” value in assay [1] (concentration in agent solution 0.001 ppm) and in assay [2] (concentration in medium 0.05 ppm) were 15% and 55%, respectively.

For the origin of these results see patent publication US20190059378A1, “SYNERGISTIC FUNGICIDAL COMPOSITION FOR CONTROLLING PLANT DISEASES” (Sumitomo Chemical Company, Limited, priority 2016, published 2019).
